In patent publication US20240382437A1, “TREATMENT OF ACUTE TISSUE INJURY” (OBVIA PHARMACEUTICALS LTD., priority 2021, published 2024):

Columns and labels:
transplanted BN kidney = assay: Histology of transplanted BN kidneys 20 hr after allograft transplant into LEW rats; type: in vivo, rat; conditions: 20 hr post-transplant
Protocol: LT (left), RT (right), MTD (Maximum Tolerated Dose), IP (intraperitoneal).
(B,C,D) BN kidneys 20 hr following transplant into LEW rats. “20 hr” control kidneys (B,C) were flushed with room temperature UW Solution prior to transplant, and +PrC-210 kidneys (D) were flushed with room temperature UW Solution containing 30 mM PrC-210 prior to transplant, and recipient LEW rat also received three intraperitoneal systemic PrC-210 doses in the eight hours following transplant. Panel B red arrows highlight tubulitis pathology, and Panel C yellow arrows highlight peritubular capillaritis pathology.
Operator randomly collected sample images of renal tubules from each of the indicated kidney groups in panels A,B,C. Then, using an ImageJ macro, H/E images (e.g., FIG. 3 panels A-C) were analyzed, and above-threshold pink or blue pixels were selected and enumerated, and their ratio was then calculated and plotted to provide an estimate of kidney white blood cell infiltration.
(§1) To determine PrC-210 efficacy in suppressing inflammation-generated damage to a transplanted, allograft organ, we used an allograft rat kidney transplant model that largely eliminated the induction of the ischemia and reperfusion insults in transplant, and created only the third inflammation insult by allograft transplanting a kidney from a Brown strain (BN) rat into a recipient Lewis strain (LEW) rat (FIG. 1). PrC-210 was administered both pre-and post-implantation to determine its protective effect in suppressing any inflammation-associated damage to the transplanted BN kidney in the LEW rat. Brown Rat kidneys were flushed with UW solution containing PrC-210 and immediately transplanted into syngeneic Lewis Rat recipients. Ischemic time was virtually eliminated. Immediately following implant, and for 8 hr following kidney implant, recipient rats received systemic PrC-210 injections at doses that would enable continuous free radical-scavenging within the transplanted kidney. Transplanted kidneys and blood plasma were then harvested 20 hr following transplant to enable measurement of both PrC-210-conferred i) suppression of inflammatory by-products and ii) kidney protection.
The same blinded histology sections were examined for mononuclear white cell infiltration.

BN allograft kidneys = assay: Kidney function (serum creatinine and serum BUN) 20 hr after transplant of the BN kidney into a LEW rat; type: in vivo; conditions: three IP PrC-210 injections
Text: Rats either received no PrC-210 (“20 Hr”) or three IP PrC-210 injections in the 20 hr period following transplant (“20 Hr +PrC-210”), before recipient rat was euthanized and serum was collected. P values are indicated. To determine PrC-210 efficacy in suppressing inflammation-generated damage to a transplanted, allograft organ, we used an allograft rat kidney transplant model that largely eliminated the induction of the ischemia and reperfusion insults in transplant, and created only the third inflammation insult by allograft transplanting a kidney from a Brown strain (BN) rat into a recipient Lewis strain (LEW) rat (FIG. 1). PrC-210 was administered both pre-and post-implantation to determine its protective effect in suppressing any inflammation-associated damage to the transplanted BN kidney in the LEW rat. Brown Rat kidneys were flushed with UW solution containing PrC-210 and immediately transplanted into syngeneic Lewis Rat recipients. Ischemic time was virtually eliminated. Immediately following implant, and for 8 hr following kidney implant, recipient rats received systemic PrC-210 injections at doses that would enable continuous free radical-scavenging within the transplanted kidney. […] Serum creatinine and serum BUN were also measured to assess function in the BN allograft kidneys 20 hr after transplant (FIG. 4).

caspase 3,7 = assay: Activated caspase 3,7 activity in post-transplant kidney supernatant, measured enzymatically; type: in vivo, rat; conditions: 20 hr after transplant; PrC-210 in UW Solution plus systemic doses; 60 min reaction; FIG. 5
Protocol: Kidney supernatant activated caspase 3,7 activity was measured enzymatically in a 60 min reaction.
as §1

TIMP-1 = TIMP-1 ELISA of serum and kidney homogenate 20 hr after transplant; type: in vivo, rat; conditions: 20 hr post-transplant, kidney homogenates and sera, FIG. 6
Protocol: (§2) TIMP-1, TNF-alpha and MIP-3A/CCL20 levels were determined by ELISA analysis. P values are indicated.
as §1, with “Immediately following implant, and for 8 hr following kidney implant, recipient rats received systemic PrC-210 injections at doses that would enable continuous free radical-scavenging within the transplanted kidney. Transplanted kidneys and blood plasma were then harvested 20 hr following transplant to enable measurement of both PrC-210-conferred i) suppression of inflammatory by-products and ii) kidney protection.” left out
(§3) In screening experiments, kidney homogenate supernates from 0 hr controls and 20 hr no treatment kidneys were screened with the Proteome Profiler 29 cytokine array to detect altered, inflammation-associated, cytokine and chemokine expression levels 20 hr post-transplant. […] Individual ELISA plates were then used to quantify these changes in kidney homogenates and sera, now including rats treated with PrC-210 as well. […]

TNF-alpha = TNF-alpha ELISA of serum and kidney homogenate 20 hr after transplant; type: in vivo, rat; conditions: 20 hr post-transplant, kidney homogenates and sera, FIG. 6
Protocol: as §2
as §1, with “Immediately following implant, and for 8 hr following kidney implant, recipient rats received systemic PrC-210 injections at doses that would enable continuous free radical-scavenging within the transplanted kidney. Transplanted kidneys and blood plasma were then harvested 20 hr following transplant to enable measurement of both PrC-210-conferred i) suppression of inflammatory by-products and ii) kidney protection.” left out
as §3

MIP-3a/CCL20 = MIP-3a/CCL20 ELISA 20 hr after transplant; type: in vivo, rat; conditions: 20 hr post-transplant, FIG. 6D
Protocol: as §2
as §1, with “Immediately following implant, and for 8 hr following kidney implant, recipient rats received systemic PrC-210 injections at doses that would enable continuous free radical-scavenging within the transplanted kidney. Transplanted kidneys and blood plasma were then harvested 20 hr following transplant to enable measurement of both PrC-210-conferred i) suppression of inflammatory by-products and ii) kidney protection.” left out
as §3

Caspase 1 = Caspase 1 in plasma of ICR mice after lethal radiation; type: in vivo; conditions: PrC-210 given before or after lethal radiation with 8.68 Gy, FIG. 8
Text: Caspase 1 is a central activator of acute inflammation in neutrophilic cells, which recruits both T-cells and monocytes and activates apoptosis.

Caspase 8 = Caspase 8 in brains of ICR mice after lethal radiation; type: in vivo
Text: Caspase 8 inhibition (FIG. 9) in the brain after acute injury, such as radiation, is support for less TNF-α activation, and TRL—and FAS receptor upregulation in the brain. […] This supports that inflammation, such as activation of microglia is normalized after PrC-210.

[1] = in vivo; cited from earlier work
kidney [2] = conditions: rodent kidney transplant study; cited from earlier work
kidney [3] = conditions: rodent kidney transplant study; cited from earlier work; remark: listed apart in the source

Which “integrity of the renal tubule brush border epithelium (histology)” value (transplanted BN kidney; PrC-210 via perfusing UW Solution and intraperitoneal injections, FIG. 3) does the source give for CNCC(CS)CNC [PrC-210, 3-(methylamino)-2-(methylaminomethyl) propane-1-thiol] here?
The value was “preserved integrity of the renal tubular brush border”.

What about the “Inflammatory Infiltration Score” value (transplanted BN kidney; compared with 0 hr control group, FIG. 3, D) of the same compound?
Its value is “statistically the same as the 0 hr control group”.

And the “Banff scores for tubulitis and peritubular capillaritis” value (transplanted BN kidney; kidney perfused with PrC-210-containing UW Solution (30 mM) plus three post-implant intraperitoneal doses, FIG. 2)?
The value was “equal to Banff scores of the “0 Hr” control BN group”.

What about the “mononuclear white cell infiltration (blue pixels)” value (transplanted BN kidney; versus the untreated BN kidneys, P=0.011, FIG. 3) of the same compound?
The value was “significantly suppressed”.

And the serum creatinine (BN allograft kidneys; P=0.032, FIG. 4)?
Its serum creatinine is “significant reductions”.

And the “serum BUN” value (BN allograft kidneys; P=0.046, FIG. 4)?
Its value is “significant reductions”.

And the “activated caspase activity in BN kidney homogenates” value (caspase 3,7)?
The value was “same activated caspase activity to that seen in “O hr” control kidneys”.

What about the TIMP-1 levels (TIMP-1) of the same compound?
Its TIMP-1 levels is “decreased”.

What about the TNF-alpha levels (TNF-alpha) of the same compound?
The TNF-alpha levels was “decreased”.

And the MIP-3a/CCL20 levels (MIP-3a/CCL20)?
The MIP-3a/CCL20 levels was “increased significantly higher”.

What about the “Caspase 1 in plasma” value (Caspase 1) of the same compound?
Its value is 6-day suppression.

What about the “duration of the effect on Caspase 8” value (Caspase 8; ICR mice brain, lethal radiation with 8.68 Gy) of the same compound?
The value was “at least six days”.

What about the “Caspase 8 in the brain” value (Caspase 8; ICR mice, PrC-210 given before lethal radiation with 8.68 Gy, FIG. 9) of the same compound?
Its value is “inhibition”.

And the hypotension side effects [1]?
The hypotension side effects was “no measurable”.

What about the nausea/emesis side effects [1] of the same compound?
Its nausea/emesis side effects is “no measurable”.

And the “free-radical-induced kidney damage induced during 30 hr cold storage” value (kidney [2])?
The value was “to background levels”.

And the “free-radical-induced kidney damage induced during reperfusion injury upon implant” value (kidney [3])?
Its value is “to background levels”.
